Here are results for five compounds from patent US20060093577A1, “Combination anti-viral compositions and methods of use” (priority 2004, published 2006).

In data set [1] the test system is BVDV. Kind of data set: Two-way combination inhibition-of-CPE assay, BVDV-infected MDBK cells, MOI 0.05 (Example 5). Format: cell-based, bovine viral diarrhea virus. The settings on record: read-out: EC50 protection of MDBK cells from BVDV-induced cytotoxicity. How it is done: (§1) Each two-way combination was performed twice.
Individual potencies (EC50) of each of the drugs for inhibition of BVDV-induced cytopathic effects in MDBK cells were determined for each combination experiment (see Table 9).

The nature of the next data set: in vitro. Conditions: bovine. How it is done: MDBK cells were seeded into 96-well plates at a density of approximately 2×10^4 cells per well. The cultures were incubated 3-24 hours to permit attachment of the cells to the plates prior to infection and addition of compounds. […] The mean absorbance in each set of triplicate wells was determined. Antiviral activity was measured as MTS conversion relative to the differential between the conversion for cell (non-infected) and viral (non-drug-treated) controls.

Data set [2] deals with BVDV. In words: Protection of MDBK cells from BVDV-induced cytotoxicity (MTS/PMS CPE reduction). Conditions: Bovine viral diarrhea virus isolates and strains. Format: cell-based.
Procedure: Cell proliferation assays were performed using a non-radioactive cell proliferation MTS/PMS assay (MTS: 3-(4,5-dimethylthiazol-2-yl)-5-(3-carboxymethoxy phenyl)-2-(4-sulfophenyl)-2H-tetrazolium (Promega Corporation, Madison, Wis.); PMS: phenazine methosulfate (Sigma Aldrich, St. Louis, Mo.)). MDBK cells were seeded into 96-well plates at a density of approximately 2×10^4 cells per well. The cultures were incubated 3-24 hours to permit attachment of the cells to the plates prior to infection and addition of compounds. The appropriate number of PFU of BVDV were added to each well to achieve the desired MOI (0.1 or 0.01); the cells were exposed to the virus diluted at the appropriate concentration in phosphate buffered saline (PBS) containing 1% horse serum for 1 to 2 hours. The virus inoculum was then removed and the cells were washed with PBS containing 1% HS. The test compounds, castanospermine, ribavirin, and interferon-α were dissolved in cell growth media with 2% HS and added to the cells at varying concentrations, and then incubated at 37° C. in the presence of 5% CO2 for 3-4 days. Uninfected cells and infected, untreated cells (i.e., without compound) were used as additional controls. After the 3-4 days of incubation, a combined MTS/PMS solution was added into each well assay plate containing 100 μL of cells in culture medium to obtain final concentrations of 333 μg/ml MTS and 25 μM PMS. A spectrophotometer plate reader was used to measure the absorbance at 490 nm after incubation of the 96-well plate for 1 to 4 hours at 37° C. in a humidified, 5% CO2 atmosphere. The mean absorbance in each set of triplicate wells was determined. Antiviral activity was measured as MTS conversion relative to the differential between the conversion for cell (non-infected) and viral (non-drug-treated) controls. The cytopathic effect (CPE) reduction for each concentration of the tested compound, which correlated with antiviral activity, was calculated as follows. % CPE reduction=[(D−ND)/(NI−ND)]×100, in which D (drug-treated) is the absorbance of drug-treated cells; ND (non drug-treated) is the absorbance of untreated infected cells; and NI (non-infected) is the absorbance of non-infected cells.
The EC50 represents the concentration of the drug that protects 50% of the cells from BVDV induced cytotoxicity (i.e., 50% CPE reduction). CC50 equals the concentration that affects the viability of 50% of the MDBK cells.
Data set [3] concerns BVDV. Kind of data set: Plaque reduction assay. Format: cell-based. The settings on record: Bovine viral diarrhea virus isolates and strains. The method, then:
The BVDV virus stock was serially diluted in phosphate buffered saline (PBS) containing 1-5% horse serum (HS). MDBK cells were grown to confluence in culture dishes and were infected at 37° C. with BVDV at various multiplicity of infection (<1 to >0.001). After 1.5 hours of adsorption, the inoculum was removed. The cell monolayer was overlaid with 0.5% agarose dissolved in cell growth media containing 5% HS with and without test compound(s) (castanospermine, ribavirin, or IFN-α). The dishes were incubated for 3 to 5 days at 37° C. under 5% CO2. The monolayer of MDBK cells was fixed with formaldehyde, stained with crystal violet or methylene blue according to standard methods, and then washed in double distilled water. Following washing, the plates air dried at room temperature. The virus plaques formed in the MDBK cell cultures were quantified by manual counting. The inhibitory activities of test compounds were determined by calculating the percent (%) reduction in plaques as follows: % reduction in plaques=[…].
On the technique in general: In a plaque reduction assay, fewer plaques than in the control indicate reduced infectivity or spread.

Data set [4] relates to BVDV. In words: Two-way combination inhibition-of-CPE assay, BVDV-infected MDBK cells, MOI 0.01 (MacSynergy, isobologram). It counts as cell-based, bovine viral diarrhea virus. Conditions: for EC50: Bovine viral diarrhea virus isolates and strains, MDBK. The method, then:
as §1
Initially, as was done in Example 1, individual compound potency (EC50) for inhibition of BVDV-induced cytopathic effects in MDBK cells was determined for each combination experiment (see Table 5). Minimal experiment-to-experiment variability in individual drug potency was observed.
A greater positive percent (synergy) volume is indicative of a synergistic effect. Values less than 25 μM/ml^2% or 25 μM(IU)/ml(well)^2% are insignificant; values between 25 and 50 μM/ml^2% or 25 and 50 μM(IU)/ml(well)^2% are considered minor but significant; values between 50 and 100 μM/ml^2% or μM(IU)/ml(well)^2% indicate moderate synergy that may be indicative of a significant synergistic effect in vivo; and values greater than 100 μM/ml^2% or μM(IU)/ml(well)^2% indicate strong synergy that is likely indicative of a significant synergistic effect in vivo.

Data set [5] in a line: CC50 in plaque reduction assay table (Example 3). Format: cell-based. Conditions: bovine.
A further data set concerns BVDV strain NADL. Kind of data set: Inhibition of BVDV release from MDBK cells. Format: cell-based. Conditions: Bovine viral diarrhea virus isolates and strains, MOI about 0.01, 24 hours. The method, then:
The cell cultures were incubated 3-24 hours to allow attachment of the cells to the tissue culture plates prior to infection and addition of compounds. The appropriate number of plaque forming units (PFU) of BVDV strain NADL (ATCC VR-534) diluted in sterile PBS containing 1% HS were added to each well to achieve the desired multiplicity of infection (MOI) (about 0.01). The cells were exposed to the virus at 37° C., 5% CO2 for 1.5 hours, and then washed with PBS. The test compounds, dissolved in cell growth media with 2% HS, were then added to the cells at varying concentrations. The plates were incubated at 37° C., 5% CO2 for 24 hours (one cycle of BVDV replication). The 96-well plates were then centrifuged at low speed to pellet the cells. The supernatant was serially diluted and used to infect a new monolayer of cells in 12-well plates. The cell monolayer was then overlaid with 0.5% agarose dissolved in cell growth media with 5% HS containing (1) castanospermine (Phytex, Australia); (2) ribavirin (Ribavirin, Sigma); (3) IFN-α2b (PBL Biomedical Laboratories, Piscataway, N.J.); or (4) alone (i.e., no added test compound). The treated cells were incubated for 3 to 5 days at 37° C. under 5% CO2, fixed with formaldehyde, stained with crystal violet or methylene blue, washed in double distilled water, and finally air dried at room temperature. Virus plaques formed were quantified by manual counting, and titer was determined.

[6] abbreviates: Bovine viral diarrhea virus isolates and strains, MDBK.
The mark [7] stands for this setting: read-out: EC50 (50% CPE reduction), MOI = 0.01.
Where [8] appears, read: read-out: EC50 (50% CPE reduction), MOI = 0.1.
The mark [9] stands for this setting: MOI 0.01, combination experiments, compound alone, read-out: EC50 protection from BVDV-induced cytotoxicity, individual compound.

On to `NC12CC3CC(CC(C3)C1)C2` [Amantadine, amantadine], for which, in the data set on BVDV [1] (setting [6]), the concentration giving a half-maximal response (EC50) (in general, the concentration giving half of the maximal effect) is 400 µM.

For the compound `O[C@H]1[C@H](O)[C@@H](O)CN2CC[C@H](O)[C@H]12` [Castanospermine, [1S-(1α,6β,7α,8β,8αβ)]-octahydro-1,6,7,8-indoli-zinetetrol], the CC50 (in the data set “in vitro”; in data set [5]) was greater than 1000 µM in each case. Further, the EC50 in the data set with BVDV [2] (setting [7]) was 61.5 ± 15.4 µM; with BVDV [2] (setting [8]), 177 ± 14.5 µM; with BVDV [3], 110 ± 82 µM; with BVDV [1] (setting [6]) it was greater than 100 µM; in the data set with BVDV [4] (Interferon-α2b added 0 IU/mL, read-out: Average Castanospermine EC50), 52 µM; in the data set with BVDV [4] (Interferon-α2b added 0.7 IU/mL, read-out: Average Castanospermine EC50), 39 µM. The concentration giving a half-maximal response (EC50) is 19 µM in the data set on BVDV [4] (Interferon-α2b added 2.2 IU/mL, read-out: Average Castanospermine EC50); 12 µM with BVDV [4] (Interferon-α2b added 6.7 IU/mL, read-out: Average Castanospermine EC50); 1 µM in the data set with BVDV [4] (Interferon-α2b added 20 IU/mL, read-out: Average Castanospermine EC50); less than 1 µM in the data set on BVDV [4] (Interferon-α2b added 60 IU/mL, read-out: Average Castanospermine EC50); 59 ± 16 µM in the data set with BVDV [4] (setting [9]); 14 ± 8 µM with BVDV strain NADL. The “dose-dependent reduction in EC50 of castanospermine” value in the data set on BVDV [4] (addition of increasing concentrations of interferon-α2b) was greater than 52 fold. In addition, in the data set with BVDV [4] (at 10 IU/mL of interferon-α2b), the “fold reduction of castanospermine EC50 (isobologram)” value is reported as greater than 7 fold. Further, the “fold decrease of castanospermine EC50” value in the data set on BVDV [4] (at 20 IU/mL interferon-α2b) is roughly 50 fold. Also, in the data set with BVDV strain NADL, the 90% effect concentration (EC90) – broadly, the concentration at which the effect reaches the 90% level – is 83 ± 21 µM.

In the case of `CCCCN1C[C@H](O)[C@@H](O)[C@H](O)[C@H]1CO` [NB-DNJ, N-butyl-DNJ], in the data set on BVDV [1] (MOI 0.05, individual drug), the EC50 is greater than 500 µM.

Take `NC(=O)c1ncn([C@@H]2O[C@H](CO)[C@@H](O)[C@H]2O)n1` [Ribavirin, reference compound]: the CC50 in the data set “in vitro” was 57 ± 34 µM; in data set [5] (MDBK cells, Table 3, read-out: CC50) it was 250 µM. Also, the concentration giving a half-maximal response (EC50) in the data set with BVDV [2] (setting [7]) was determined as 4.4 ± 2 µM; with BVDV [2] (setting [8]), 9 ± 1 µM; in the data set on BVDV [3] it was 9.1 ± 6.3 µM; with BVDV [4] (setting [9]), 4 ± 2 µM; in the data set on BVDV strain NADL it was 2.4 ± 2.2 µM. Besides, in the data set with BVDV [4] (at about 10 IU/mL interferon-α2b), the “fold reduction of ribavirin EC50 (isobologram)” value is given as greater than 6 fold. This compound displayed a concentration for an effect of 90% (EC90) with BVDV strain NADL of 4.9 ± 1.9 µM.

As to Interferon-α2b, the “Average Interferon-α2b EC50” value was 16 IU/mL with BVDV [4] (Castanospermine added 0 μM); 18 IU/mL in the data set with BVDV [4] (Castanospermine added 1.2 μM); 13 IU/mL in the data set on BVDV [4] (Castanospermine added 3.7 μM); 7 IU/mL with BVDV [4] (Castanospermine added 11 μM); 1 IU/mL in the data set on BVDV [4] (Castanospermine added 33 μM); less than 1 IU/mL in the data set with BVDV [4] (Castanospermine added 100 μM). Further, the “EC50 protection from BVDV-induced cytotoxicity, individual compound” value with BVDV [4] (MOI 0.01, combination experiments, compound alone) was determined as 19 ± 6 IU/mL. Also, the “fold decrease of interferon-α2b EC50” value with BVDV [4] (at 11 μM of castanospermine) was roughly 2 fold.
